Assay [1] deals with Staphylococcus aureus. The experiment in a line: Antibacterial activity against Staphylococcus aureus. Type of assay: functional.
Assay [2] concerns Enterococcus faecalis. Kind of assay: Antibacterial activity against Enterococcus faecalis; Range is 64->64. It counts as functional.
A further assay has as its system Mus musculus. Kind of assay: Antibacterial activity against Staphylococcus aureus infection in mouse after i.v. administration (Vancomycin, ED50= 1.0 mg/kg ). The note with it: route intravenous. It counts as functional.
The next assay deals with Escherichia coli. The experiment in a line: Antibacterial activity against Escherichia coli at </=64 ug/mL; No activity. Type of assay: functional, organism-based.
The test system of assay [3] is Enterococcus faecalis. Kind of assay: Antibacterial activity against Enterococcus faecalis; Range is 1-2. It counts as functional.
Assay [4] relates to Staphylococcus aureus. The experiment in a line: Antibacterial activity against Staphylococcus aureus; Range is 0.5-1. Type of assay: functional.
Assay [5] deals with Enterococcus faecalis. Kind of assay: Antibacterial activity against Enterococcus faecalis; Range is 4-16. It counts as functional.
Assay [6] concerns Staphylococcus aureus. Kind of assay: Antibacterial activity against Staphylococcus aureus; Range is 0.5-2. Type of assay: functional.
Assay [7] relates to Staphylococcus aureus. Kind of assay: Antibacterial activity against Staphylococcus aureus; Range is 8-16. Type of assay: functional.
Assay [8] has as its system Staphylococcus aureus. The experiment in a line: Antibacterial activity against Staphylococcus aureus; Range is 1-2. Type of assay: functional.
Assay [9] deals with Enterococcus faecalis. The experiment in a line: Antibacterial activity against Enterococcus faecalis; Range is 4-8. Type of assay: functional.
Assay [10] relates to Enterococcus faecalis. The experiment in a line: Antibacterial activity against Enterococcus faecalis; Range is 16-32. It counts as functional.
For assay [11], the system named is Staphylococcus aureus. Kind of assay: Antibacterial activity against Staphylococcus aureus; Range is 4-8. It counts as functional.
For assay [12], the system named is Enterococcus faecalis. Kind of assay: Antibacterial activity against Enterococcus faecalis; Range is 4-32. It counts as functional.
In assay [13] the test system is Enterococcus faecalis. The experiment in a line: Antibacterial activity against Enterococcus faecalis; Range is 16-64. It counts as functional.
Assay [14] deals with Staphylococcus aureus. The experiment in a line: Antibacterial activity against Staphylococcus aureus; Range is 2-8. Type of assay: functional.
Assay [15] concerns Enterococcus faecalis. The experiment in a line: Antibacterial activity against Enterococcus faecalis; Range is 8-16. It counts as functional.
The test system of assay [16] is Enterococcus faecalis. Kind of assay: Antibacterial activity against Enterococcus faecalis; Range is 1-4. It counts as functional.
Assay [17] deals with Staphylococcus aureus. Kind of assay: Antibacterial activity against Staphylococcus aureus; Range is 2-4. Type of assay: functional.

≈ marks a conversion by molar mass, not a printed value.

`CC(C)CC(=O)O[C@@H]1[C@@H](O[C@H]2[C@H](O)[C@H](O)[C@@H](Oc3ccc(C[C@H]4NC(=O)[C@H]([C@@H](C)c5ccccc5)NC(=O)CNC(=O)[C@H](CO)NC(=O)[C@@H]([C@@H](O)[C@@H]5CNC(N)N5[C@H]5O[C@H](CO)[C@@H](O)[C@H](O)[C@@H]5O)NC(=O)[C@H]([C@@H](O)[C@@H]5CNC(N)N5)NC4=O)cc3)O[C@@H]2CO)O[C@H](CO)[C@@H](O)[C@@H]1O` (stereo not given in full): the MIC against Staphylococcus aureus [1] is 8 µg/mL (≈ 5.78 µM); against Enterococcus faecalis [2], 64 µg/mL (≈ 46.3 µM); with Escherichia coli, “No activity”. Moreover, the ED50 with Mus musculus amounted to 3.5 mg/kg.
Regarding `C[C@@H](c1ccccc1)[C@@H]1NC(=O)CNC(=O)[C@H](CO)NC(=O)[C@@H]([C@@H](O)[C@@H]2CNC(N)N2[C@H]2O[C@H](CO)[C@@H](O)[C@H](O)[C@@H]2O)NC(=O)[C@H]([C@@H](O)[C@@H]2CNC(N)N2)NC(=O)[C@@H](Cc2ccc(O[C@H]3O[C@H](CO)[C@@H](O[C@H]4O[C@H](COC(=O)C(c5ccccc5)c5ccccc5)[C@@H](O)[C@H](O)[C@@H]4O)[C@H](O)[C@@H]3O)cc2)NC1=O` (stereo not given in full), the ED50 in the assay with Mus musculus is 0.29 mg/kg. Moreover, the MIC is 2 µg/mL (≈ 1.34 µM) in the assay with Enterococcus faecalis [3], 1 µg/mL (≈ 0.67 µM) against Staphylococcus aureus [4] and “No activity” with Escherichia coli.
`CCCCCCC(=O)OC[C@H]1O[C@H](Oc2ccc(C[C@H]3NC(=O)[C@H]([C@@H](C)c4ccccc4)NC(=O)CNC(=O)[C@H](CO)NC(=O)[C@@H]([C@@H](O)[C@@H]4CNC(N)N4[C@H]4O[C@H](CO)[C@@H](O)[C@H](O)[C@@H]4O)NC(=O)[C@H]([C@@H](O)[C@@H]4CNC(N)N4)NC3=O)cc2)[C@@H](O)[C@@H](O)[C@@H]1O[C@H]1O[C@H](CO)[C@@H](O)[C@H](O)[C@@H]1O` (stereo not given in full): the MIC in the assay on Enterococcus faecalis [5] is 16 µg/mL (≈ 11.3 µM); in the assay with Staphylococcus aureus [6], 2 µg/mL (≈ 1.42 µM); with Escherichia coli, “No activity”.
In the case of `C[C@@H](c1ccccc1)[C@@H]1NC(=O)CNC(=O)[C@H](CO)NC(=O)[C@@H]([C@@H](O)[C@@H]2CNC(N)N2[C@H]2O[C@H](CO)[C@@H](O)[C@H](O)[C@@H]2O)NC(=O)[C@H]([C@@H](O)[C@@H]2CNC(N)N2)NC(=O)[C@@H](Cc2ccc(O[C@H]3O[C@H](COC(=O)Cc4ccccc4)[C@@H](O[C@H]4O[C@H](CO)[C@@H](O)[C@H](O)[C@@H]4O)[C@H](O)[C@@H]3O)cc2)NC1=O` (stereo not given in full), the results for the minimum inhibitory concentration (MIC) with Enterococcus faecalis [2], in the assay on Escherichia coli and against Staphylococcus aureus [7] were 64 µg/mL (≈ 45.2 µM), “No activity” and 16 µg/mL (≈ 11.3 µM), respectively.
Take `CCCCCC(=O)OC[C@H]1O[C@H](O[C@H]2[C@H](O)[C@H](O)[C@@H](Oc3ccc(C[C@H]4NC(=O)[C@H]([C@@H](C)c5ccccc5)NC(=O)CNC(=O)[C@H](CO)NC(=O)[C@@H]([C@@H](O)[C@@H]5CNC(N)N5[C@H]5O[C@H](CO)[C@@H](O)[C@H](O)[C@@H]5O)NC(=O)[C@H]([C@@H](O)[C@@H]5CNC(N)N5)NC4=O)cc3)O[C@@H]2CO)[C@@H](O)[C@@H](O)[C@@H]1O` (stereo not given in full): the MIC was 2 µg/mL (≈ 1.43 µM) in the assay with Staphylococcus aureus [8], 8 µg/mL (≈ 5.72 µM) in the assay with Enterococcus faecalis [9] and “No activity” in the assay on Escherichia coli. In the assay on Mus musculus, this compound returned a 50% effective dose (ED50) of 4 mg/kg.
Take `CCCCCC(=O)OC[C@H]1O[C@H](Oc2ccc(C[C@H]3NC(=O)[C@H]([C@@H](C)c4ccccc4)NC(=O)CNC(=O)[C@H](CO)NC(=O)[C@@H]([C@@H](O)[C@@H]4CNC(N)N4[C@H]4O[C@H](CO)[C@@H](O)[C@H](O)[C@@H]4O)NC(=O)[C@H]([C@@H](O)[C@@H]4CNC(N)N4)NC3=O)cc2)[C@@H](O)[C@@H](O)[C@@H]1O[C@H]1O[C@H](CO)[C@@H](O)[C@H](O)[C@@H]1O` (stereo not given in full): the values for the MIC against Enterococcus faecalis [10], against Staphylococcus aureus [11] and in the assay on Escherichia coli were 32 µg/mL (≈ 22.9 µM), 8 µg/mL (≈ 5.72 µM) and “No activity”, respectively.
For the compound `CCCC(CCC)C(=O)OC[C@H]1O[C@H](Oc2ccc(C[C@H]3NC(=O)[C@H]([C@@H](C)c4ccccc4)NC(=O)CNC(=O)[C@H](CO)NC(=O)[C@@H]([C@@H](O)[C@@H]4CNC(N)N4[C@H]4O[C@H](CO)[C@@H](O)[C@H](O)[C@@H]4O)NC(=O)[C@H]([C@@H](O)[C@@H]4CNC(N)N4)NC3=O)cc2)[C@@H](O)[C@@H](O)[C@@H]1O[C@H]1O[C@H](CO)[C@@H](O)[C@H](O)[C@@H]1O` (stereo not given in full), the values for the MIC in the assay with Enterococcus faecalis [12], in the assay with Staphylococcus aureus [1] and with Escherichia coli were 32 µg/mL (≈ 22.4 µM), 4 µg/mL (≈ 2.81 µM) and “No activity”, respectively.
On to `C[C@@H](c1ccccc1)[C@@H]1NC(=O)CNC(=O)[C@H](CO)NC(=O)[C@@H]([C@@H](O)[C@@H]2CNC(N)N2[C@H]2O[C@H](CO)[C@@H](O)[C@H](O)[C@@H]2O)NC(=O)[C@H]([C@@H](O)[C@@H]2CNC(N)N2)NC(=O)[C@@H](Cc2ccc(O[C@H]3O[C@H](COC(=O)OCc4ccccc4)[C@@H](O[C@H]4O[C@H](CO)[C@@H](O)[C@H](O)[C@@H]4O)[C@H](O)[C@@H]3O)cc2)NC1=O` (stereo not given in full), for which the MIC was 8 µg/mL (≈ 5.58 µM) in the assay on Staphylococcus aureus [11], 64 µg/mL (≈ 44.6 µM) against Enterococcus faecalis [13] and “No activity” in the assay on Escherichia coli.
On to `C[C@@H](c1ccccc1)[C@@H]1NC(=O)CNC(=O)[C@H](CO)NC(=O)[C@@H]([C@@H](O)[C@@H]2CNC(N)N2[C@H]2O[C@H](CO)[C@@H](O)[C@H](O)[C@@H]2O)NC(=O)[C@H]([C@@H](O)[C@@H]2CNC(N)N2)NC(=O)[C@@H](Cc2ccc(O[C@H]3O[C@H](COC(=O)C(c4ccccc4)c4ccccc4)[C@@H](O[C@H]4O[C@H](CO)[C@@H](O)[C@H](O)[C@@H]4O)[C@H](O)[C@@H]3O)cc2)NC1=O` (stereo not given in full), for which the minimum inhibitory concentration (MIC) against Staphylococcus aureus [8] is 2 µg/mL (≈ 1.34 µM); in the assay with Enterococcus faecalis [9], 8 µg/mL (≈ 5.36 µM); in the assay on Escherichia coli it was “No activity”.
With `C[C@@H](c1ccccc1)[C@@H]1NC(=O)CNC(=O)[C@H](CO)NC(=O)[C@@H]([C@@H](O)[C@@H]2CNC(N)N2[C@H]2O[C@H](CO)[C@@H](O)[C@H](O)[C@@H]2O)NC(=O)[C@H]([C@@H](O)[C@@H]2CNC(N)N2)NC(=O)[C@@H](Cc2ccc(O[C@H]3O[C@H](CO)[C@@H](O[C@H]4O[C@H](COC(=O)OCc5ccccc5)[C@@H](O)[C@H](O)[C@@H]4O)[C@H](O)[C@@H]3O)cc2)NC1=O` (stereo not given in full), the minimum inhibitory concentration (MIC) is 8 µg/mL (≈ 5.58 µM) with Staphylococcus aureus [14], 16 µg/mL (≈ 11.2 µM) against Enterococcus faecalis [15] and “No activity” in the assay with Escherichia coli.
In the case of `CCCCCCC(=O)OC[C@H]1O[C@H](O[C@H]2[C@H](O)[C@H](O)[C@@H](Oc3ccc(C[C@H]4NC(=O)[C@H]([C@@H](C)c5ccccc5)NC(=O)CNC(=O)[C@H](CO)NC(=O)[C@@H]([C@@H](O)[C@@H]5CNC(N)N5[C@H]5O[C@H](CO)[C@@H](O)[C@H](O)[C@@H]5O)NC(=O)[C@H]([C@@H](O)[C@@H]5CNC(N)N5)NC4=O)cc3)O[C@@H]2CO)[C@@H](O)[C@@H](O)[C@@H]1O` (stereo not given in full), the ED50 with Mus musculus was determined as 4 mg/kg. Besides, the MIC against Staphylococcus aureus [4] was 1 µg/mL (≈ 0.708 µM); against Enterococcus faecalis [16], 4 µg/mL (≈ 2.83 µM); with Escherichia coli, “No activity”.
In the case of `C[C@@H](c1ccccc1)[C@@H]1NC(=O)CNC(=O)[C@H](CO)NC(=O)[C@@H]([C@@H](O)[C@@H]2CNC(N)N2[C@H]2O[C@H](CO)[C@@H](O)[C@H](O)[C@@H]2O)NC(=O)[C@H]([C@@H](O)[C@@H]2CNC(N)N2)NC(=O)[C@@H](Cc2ccc(O[C@H]3O[C@H](CO)[C@@H](O[C@H]4O[C@H](COC(=O)Cc5ccccc5)[C@@H](O)[C@H](O)[C@@H]4O)[C@H](O)[C@@H]3O)cc2)NC1=O` (stereo not given in full), the MIC was 4 µg/mL (≈ 2.82 µM) against Staphylococcus aureus [17], 16 µg/mL (≈ 11.3 µM) against Enterococcus faecalis [15] and “No activity” with Escherichia coli.

The MIC is the lowest concentration that inhibits growth of the organism. The term ED50 denotes the midpoint of the dose-response relation. A higher ED50 goes with a need for a large dose.

Values taken from ChEMBL document CHEMBL1146703, “Mannopeptimycin esters and carbonates, potent antibiotic agents against drug-resistant bacteria” (2004).
